Values joined by “and” are separate entries in the source; they are usually repeats but may differ in a detail not shown here. Equal values may be shown once.
Tested on: 953936-095-R-J2-PDC spheroids with HUVEC/MSC, viability
Assay: Anticancer human tumor 953936-095-R-J2-PDC patient-derived cervical squamous cell carcinoma cell line growth inhibition [PI3K]
Conditions: for viability, T/C: stronger effect = lower value
From the text: Combinatorial screen of targeted agents with the PI3K inhibitors inavolisib, alpelisib, duvelisib, and copanlisib in multi-cell type tumor spheroids
A high-throughput screen of multi-cell type tumor spheroids was designed to identify active combinations of targeted small molecules and PI3K pathway inhibitors. Complex spheroids include a stromal component modeled by human endothelial cells (HUVEC) and fibroblasts modeled by human mesenchymal stem cells (MSCs). The concentration ranges selected for each drug and investigational agent were based upon clinically achievable concentrations if the clinical Cmax of the agent was known.
Compounds. The drugs and investigational agents: inavolisib (NSC800729), alpelisib (NSC765974), duvelisib (NSC772469), copanlisib (NSC816437), ipatasertib (NSC767898), afuresertib (NSC778305), talazoparib (NSC767125), sapanisertib (NSC764658), selumetinib (NSC741078), tovorafenib (DAY101, NSC766906), vemurafenib (NSC761431), ravoxertinib (NSC781343), sotorasib (NSC818433), MRTX1133 (NSC 836407), abemaciclib (NSC 768073), palbociclib (NSC758247), venetoclax (NSC 766270), SY5609 (NSC837396), enzalutamide (NSC755605), and darolutamide (NSC825331), were obtained from the National Cancer Institute (NCI) Developmental Therapeutics Program Chemical Repository. The FDA-approved anticancer drug set is available from the NCI Developmental Therapeutics Program. […] The stock solutions were prepared in dimethyl sulfoxide (DMSO, Sigma-Aldrich, St. Louis, MO, cat. D2650) at 800-fold the tested concentration and stored at -70 degrees C prior to their use. All drugs and investigational agents were tested over a range starting from a high concentration at or near the clinical Cmax and decreasing in half-log increments. If the clinical Cmax for an agent had not been determined, the highest concentration tested was 10 microM.
Cell Culture. All cells were maintained in an incubator at 37 degrees C and 5% CO2 with 95% humidity. The PDC lines were cultured according to standard operating procedures established by the NCI PDMR (https://pdmr.cancer.gov/sops/default.htm). All PDCs were thawed and cultured in Matrigel-coated flasks prepared with a working solution of 1X Ham's F-12 nutrient mix, without supplementation (Invitrogen, Waltham, MA, cat. 11765054), 100 U/mL penicillin-streptomycin (Invitrogen, cat. 15140122), and 2.5% Matrigel (Corning Inc., Corning, NY, cat. 354248) for the first three passages. The 354836-022-R-J1-PDC, 475296-252-R-J1-PDC, and 997726-040-R-J2-PDC lines were cultured in 6A media, which includes advanced DMEM/F-12 (Thermo Fisher Scientific, cat. 12634028), 10 mM HEPES (Thermo Fisher Scientific, cat. 15630080), 1X GlutaMAX supplement (Thermo Fisher Scientific, cat. 35050061), 0.1 mg/mL primocin (InvivoGen, San Diego, CA, cat. ant-pm-2), 10% defined fetal bovine serum, heat inactivated (HyClone Laboratories Inc., Logan, UT, cat. SH30070.03HI), 50% L-WRN conditioned media (ATCC, cat. CRL-3276), 1.25 mM N-Acetyl-L-cysteine (Sigma-Aldrich, cat. A9165), 10 mM nicotinamide (Sigma-Aldrich, cat. N0636), 1X B-27 supplement (Thermo Fisher Scientific, cat. 17504044), 1X N-2 supplement (Thermo Fisher Scientific, cat. 17502048), and 10 microM Y-27632 dihydrochloride (Tocris Bioscience, Bristol, United Kingdom, cat. 1254). The 624824-186-R-J2-PDC line was cultured in 6C/Colon 1B media, which includes all 6A media components plus 50 ng/mL human EGF recombinant protein (Thermo Fisher Scientific, cat. PHG0311). […]
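Note: spheroids exposed to compounds for seven days before read-out.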

C#Cc1c(F)ccc2cc(O)cc(-c3ncc4c(N5CC6CCC(C5)N6)nc(OCC56CCCN5CC(F)C6)nc4c3F)c12 (configuration not stated)
viability, T/C (compound 0.0316 µM): 115% [middle of 4 runs] | viability, T/C (compound 0.1 µM): 97.5% [middle of 4 runs] | viability, T/C (compound 0.316 µM): 101% [middle of 4 runs] | viability, T/C (compound 1 µM): 92.4% [middle of 4 runs] | viability, T/C (compound 3.16 µM): 85.2% [middle of 4 runs] | viability, T/C (compound 10 µM): 81% [middle of 4 runs] | IC50 (curve of compound): > 10000 nM

C=CC(=O)N1CCN(c2nc(=O)n(-c3c(C)ccnc3C(C)C)c3nc(-c4c(O)cccc4F)c(F)cc23)C(C)C1 (configuration not stated)
viability, T/C (compound 0.0316 µM): 93.6% [middle of 4 runs] | viability, T/C (compound 0.1 µM): 100% (2×) and 105% and 96.7% | viability, T/C (compound 0.316 µM): 108% [middle of 4 runs] | viability, T/C (compound 1 µM): 121% [middle of 4 runs] | viability, T/C (compound 10 µM): 118% (2×) and 112% and 127% | IC50 (curve of compound): > 10000 nM

Cn1ncc(Cl)c1-c1cc(C(=O)NC(CN)Cc2cccc(F)c2)sc1Cl (configuration not stated)
viability, T/C (compound 0.0316 µM): 93.5% [middle of 4 runs] | viability, T/C (compound 0.1 µM): 82.7% [middle of 4 runs] | viability, T/C (compound 0.316 µM): 64.7% [middle of 4 runs] | viability, T/C (compound 1 µM): 37.6% and 37.7% (2×) and 35.5% | viability, T/C (compound 3.16 µM): 21.1% [middle of 4 runs] | viability, T/C (compound 10 µM): 13.2% and 12.6% (2×) and 13.7% | IC50 (curve of compound): 597 nM [middle of 4 runs]

Cn1cnc2c(F)c(Nc3ccc(Br)cc3Cl)c(C(=O)NOCCO)cc21 + CC(Nc1ccc2c(c1)OCCn1cc(N3C(=O)OCC3C(F)F)nc1-2)C(N)=O
IC50 (curve of first compound, second compound 0.00316 µM): 494 nM | IC50 (curve of first compound, second compound 0.01 µM): 279 nM | IC50 (curve of first compound, second compound 0.0316 µM): 88.5 nM | IC50 (curve of first compound, second compound 0.1 µM): < 9.49 nM | IC50 (curve of first compound, second compound 0.316 µM): < 9.49 nM | IC50 (curve of first compound, second compound 1 µM): < 9.49 nM | viability, T/C (second compound 0.00316 µM, first compound 0.00949 µM): 88.3% | viability, T/C (second compound 0.00316 µM, first compound 0.03 µM): 81.4% | viability, T/C (second compound 0.00316 µM, first compound 0.0949 µM): 66% | viability, T/C (second compound 0.00316 µM, first compound 0.3 µM): 55.7% | viability, T/C (second compound 0.00316 µM, first compound 0.949 µM): 43.7% | viability, T/C (second compound 0.00316 µM, first compound 3 µM): 30.2% | viability, T/C (second compound 0.01 µM, first compound 0.00949 µM): 75.6% | viability, T/C (second compound 0.01 µM, first compound 0.03 µM): 68.5% | viability, T/C (second compound 0.01 µM, first compound 0.0949 µM): 60% | viability, T/C (second compound 0.01 µM, first compound 0.3 µM): 51.5% | viability, T/C (second compound 0.01 µM, first compound 0.949 µM): 35% | viability, T/C (second compound 0.01 µM, first compound 3 µM): 26.3% | viability, T/C (second compound 0.0316 µM, first compound 0.00949 µM): 67.9% | viability, T/C (second compound 0.0316 µM, first compound 0.03 µM): 56.6% | viability, T/C (second compound 0.0316 µM, first compound 0.0949 µM): 49.7% | viability, T/C (second compound 0.0316 µM, first compound 0.3 µM): 42.5% | viability, T/C (second compound 0.0316 µM, first compound 0.949 µM): 29.7% | viability, T/C (second compound 0.0316 µM, first compound 3 µM): 20.6% | viability, T/C (second compound 0.1 µM, first compound 0.00949 µM): 46% | viability, T/C (second compound 0.1 µM, first compound 0.03 µM): 41.2% | viability, T/C (second compound 0.1 µM, first compound 0.0949 µM): 38.7% | viability, T/C (second compound 0.1 µM, first compound 0.3 µM): 23.9% | viability, T/C (second compound 0.1 µM, first compound 0.949 µM): 16.1% | viability, T/C (second compound 0.1 µM, first compound 3 µM): 7.95% | viability, T/C (second compound 0.316 µM, first compound 0.00949 µM): 28.1% | viability, T/C (second compound 0.316 µM, first compound 0.03 µM): 23% | viability, T/C (second compound 0.316 µM, first compound 0.0949 µM): 16.6% | viability, T/C (second compound 0.316 µM, first compound 0.3 µM): 11.6% | viability, T/C (second compound 0.316 µM, first compound 0.949 µM): 6.22% | viability, T/C (second compound 0.316 µM, first compound 3 µM): 3.26% | viability, T/C (second compound 1 µM, first compound 0.00949 µM): 18.6% | viability, T/C (second compound 1 µM, first compound 0.03 µM): 14.5% | viability, T/C (second compound 1 µM, first compound 0.0949 µM): 10.3% | viability, T/C (second compound 1 µM, first compound 0.3 µM): 8.09% | viability, T/C (second compound 1 µM, first compound 0.949 µM): 4.74% | viability, T/C (second compound 1 µM, first compound 3 µM): 1.5%
